Reference: US8791102B2, “Acetanilide sphingosine-1-phosphate receptor antagonists” (Exelixis, Inc., priority 2008, dated 2014)

Target: T1, human S1P1 receptors (Homo sapiens, UniProt P21453)
T1 construct: host or cells: HEK293
Experiment: S1P1R antagonist assay (fluorescent membrane potential dye, cAMP readout)
Type: cell-based
Conditions: HEK293 cells expressing human S1P1 receptors and CNG channel; 500 nM NECA; S1P1R agonist 10 nM; 90 minutes; read-out: EC50 or IC50 value
Source text: The S1P1R antagonist assay is a fluorescent membrane potential dye measurement assay, indicative of intracellular cAMP changes due to G protein-coupled receptor activation. HEK293 cells engineered to express human S1P1 receptors and a cyclic nucleotide-gated (CNG) channel are obtained from BD Biosciences, 80300-250. The CNG channels are activated by elevated levels of cAMP, resulting in ion flux and cell membrane depolarization. Membrane depolarization is detected with a membrane potential dye. Stimulation of the cells with 5′-(N-ethylcarboxamido)adenosine (NECA), an A2b receptor agonist (Sigma, E2387), elicits an A2bR-dependent increase in cAMP.
Subsequent exposure of the cells to a S1P1R agonist suppresses the NECA induced increase in cAMP through S1P1R-specific signaling by inhibiting adenylyl cyclase and the formation of cAMP from ATP. The degree to which a test compound overcomes the S1P1R agonist suppression of the NECA induced increase in cAMP is a measure of S1P1R antagonist activity. Antagonist activity is quantified as the IC50 (i.e., the concentration needed to elicited one-half of the maximum response of the test compound) and/or as the EC50 (i.e., the concentration needed to elicited one-half of the NECA induced stimulation).
Day 1: Freshly thawed cells were plated into 384-well plates (Corning, 3683) at a density of 14,000 cells/well in 20 μL, complete media and incubated for 16 hours at 37° C., 5% CO2 and 99% relative humidity. Complete media included Dulbecco's modified Eagle's medium (Invitrogen, 11965-092), 10% Fetal bovine serum (Hyclone, SH30071.03), 250 μg/mL geneticin (Invitrogen, 10131-027), and 1 μg/mL Puromycin (Fluka, 82595).
Day 2: Membrane potential dye (20 μL, BD Biosciences, 341833) was added to each well and the plates were incubated for 2.5 hours at ambient temperature. Test compounds (20 μL) were added to the wells at various concentrations (≦10 μM, 1 to 3 dilutions) in a NECA base solution and incubated for 90 minutes in the presence of the S1P1R agonist {4-((4-phenyl-5-trifluoromethyl-2-thienyl)methoxy)benzyl}-3-azetidinecarboxylic acid (10 nM). The NECA-base solution contained Dulbecco's phosphate-buffered saline (Invitrogen, 14190-136), 2.5% DMSO (Fluka, 41648), 25 μM Ro 20-1724 (Sigma, B8279), and 500 nM NECA).
Assay plates were read with a PerkinElmer EnVision reader (Excitation 350 nm, Emission 590 nm) at time T=0 minutes, before compound addition and at time T=90 minutes. The signal was calculated as the ratio T90/T0. Data was analyzed in ActivityBase XE and graphs showing log of compound concentration (X-axis) vs. % activity (Y-axis) were generated for IC50 determinations. Percent activity was calculated with the following formula: (Signal−Agonist Control Signal)/(NECA Control Signal−Agonist Control Signal)×100.

T1 sequence (P21453 whole entry): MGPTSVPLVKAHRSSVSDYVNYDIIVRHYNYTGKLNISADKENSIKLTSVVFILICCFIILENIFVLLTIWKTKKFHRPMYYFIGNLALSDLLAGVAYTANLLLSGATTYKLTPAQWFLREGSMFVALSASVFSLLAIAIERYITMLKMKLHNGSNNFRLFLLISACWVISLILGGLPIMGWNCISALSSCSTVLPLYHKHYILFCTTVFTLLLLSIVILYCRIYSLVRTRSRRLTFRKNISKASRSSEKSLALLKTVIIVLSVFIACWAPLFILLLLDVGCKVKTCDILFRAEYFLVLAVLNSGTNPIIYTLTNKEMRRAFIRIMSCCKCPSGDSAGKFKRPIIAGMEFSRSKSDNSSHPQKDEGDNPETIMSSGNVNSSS

SMILES | IC50 [nM]
CO[C@H](C(=O)NC(COCc1ccccc1)C(=O)Nc1ccc(Oc2ccccc2)cc1)c1ccccc1 (stereo partly drawn) [Compound 381, N-(2-oxo-1-{[(phenylmethyl)oxy]methyl}-2-{[4-(phenyloxy)phenyl]amino}ethyl)-2S-methoxy-2-phenylacetamide] | > 1000
O=C(COc1cccc2ccccc12)NC(COCc1ccccc1)C(=O)Nc1ccc(Oc2ccccc2)cc1 (centres unmarked) [Compound 371, N-(2-oxo-1-{[(phenylmethyl)oxy]methyl}-2-{[4-(phenyloxy)phenyl]amino}ethyl)-2-(naphthalen-1-yloxy)acetamide] | > 1000
O=C(Nc1ccc(Oc2ccc(F)cc2)cc1)[C@@H]1CN(Cc2ccccc2)CCN1C(=O)Cc1cnc[nH]1 [Compound 175, (S)-1-(2-(1H-imidazol-4-yl)acetyl)-4-benzyl-N-(4-(4-fluorophenoxy)phenyl)piperazine-2-carboxamide] | ≤ 300
O=C(NC(COCc1ccccc1)C(=O)Nc1ccc(Oc2ccccc2)cc1)C(=O)c1ccco1 (centres unmarked) [Compound 14, 3-(benzyloxy)-2-(2-(furan-2-yl)-2-oxoacetamido)-N-(4-phenoxyphenyl)propanamide] | > 1000
O=C(Cc1cnc[nH]1)N[C@@H](Cc1ccccc1)C(=O)Nc1ccc(Oc2ccc(Cl)cc2)cc1 [Compound 204, (S)-2-(2-(1H-imidazol-5-yl)acetamido)-N-(4-(4-chlorophenoxy)phenyl)-3-phenylpropanamide] | 300 to 1000
CC(C)CCC(=O)NC(COCc1ccccc1)C(=O)Nc1ccc(Oc2ccccc2)cc1 (centres unmarked) [Compound 287, 4-methyl-N-(2-oxo-1-{[(phenylmethyl)oxy]methyl}-2-{[4-(phenyloxy)phenyl]amino}ethyl)pentanamide] | > 1000
O=C(CCc1cccs1)NC(COCc1ccccc1)C(=O)Nc1ccc(Oc2ccccc2)cc1 (centres unmarked) [Compound 403, N-(2-oxo-1-{[(phenylmethyl)oxy]methyl}-2-{[4-(phenyloxy)phenyl]amino}ethyl)-3-(thiophen-2-yl)propanamide] | 300 to 1000
O=C(CCC1CCCC1)NC(COCc1ccccc1)C(=O)Nc1ccc(Oc2ccccc2)cc1 (centres unmarked) [Compound 278, N-(2-oxo-1-{[(phenylmethyl)oxy]methyl}-2-{[4-(phenyloxy)phenyl]amino}ethyl)-3-cyclopentylpropanamide] | > 1000
O=C(NC(COCc1ccccc1)C(=O)Nc1ccc(Oc2ccccc2)cc1)c1ccsc1 (centres unmarked) [Compound 389, N-(2-oxo-1-{[(phenylmethyl)oxy]methyl}-2-{[4-(phenyloxy)phenyl]amino}ethyl)thiophene-3-carboxamide] | 300 to 1000

More lines, now with the values ahead:

IC50 [nM] | SMILES
≤ 300 | O=C(Cc1cnc[nH]1)N[C@@H](CCc1ccccc1)C(=O)Nc1ccc(Oc2ccc(Cl)cc2)cc1 [Compound 157, (S)-2-(2-(1H-imidazol-5-yl)acetamido)-N-(4-(4-chlorophenoxy)phenyl)-4-phenylbutanamide]
≤ 300 | O=C(Nc1ccc(Oc2ccc(F)cc2)cc1)[C@@H]1C[C@@H](Cc2ccccc2)CN1C(=O)CSc1ccncc1 [Compound 96, (2S,4R)-4-benzyl-N-(4-(4-fluorophenoxy)phenyl)-1-(2-(pyridin-4-ylthio)acetyl)pyrrolidine-2-carboxamide]
300 to 1000 | COc1ccccc1N1CCN(CC(=O)N[C@@H](COCc2ccccc2)C(=O)Nc2ccc(Oc3ccc(F)cc3)cc2)CC1 [Compound 217, (S)-3-(benzyloxy)-N-(4-(4-fluorophenoxy)phenyl)-2-(2-(4-(2-methoxyphenyl)piperazin-1-yl)acetamido)propanamide]
300 to 1000 | CCOCCN1CCN(CC(=O)N[C@@H](COCc2ccccc2)C(=O)Nc2ccc(Oc3ccc(F)cc3)cc2)CC1 [Compound 242, (S)-3-(benzyloxy)-N-(4-(4-fluorophenoxy)phenyl)-2-(2-(4-(2-ethoxyethyl)piperazin-1-yl)acetamido)propanamide]
≤ 300 | N#CCC(=O)N1C[C@H](Cc2ccccc2)C[C@H]1C(=O)Nc1ccc(Oc2ccc(F)cc2)cc1 [Compound 129, (2S,4R)-4-benzyl-1-(2-cyanoacetyl)-N-(4-(4-fluorophenoxy)phenyl)pyrrolidine-2-carboxamide]
